Measurements from ChEMBL document CHEMBL1201862, “PubChem BioAssay data set” (2004).
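Protocol summary: plate cells (96-well), add compound at 5 concentrations, incubate 48 h, interpolate endpoints linearly. Here, GI50 denotes the concentration required for 50% inhibition of growth.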 The source made the active and inactive calls. Cut-off read from the data, not from the text of the source: active = GI50 up to about 1.1 µM and inactive = higher.

Assays:
Assay in all cases: NCI anticancer screen, dose series, 48 h
786-0 = tested on: 786-0
A498 = tested on: A498
A549 = tested on: A549
ACHN = tested on: ACHN
CAKI-1 = tested on: CAKI-1
CCRF-CEM = tested on: CCRF-CEM
COLO 205 = tested on: COLO 205
DLD-1 = tested on: DLD-1
DMS-114 = tested on: DMS-114
DMS-273 = tested on: DMS-273
EKVX = tested on: EKVX
HCC 2998 = tested on: HCC 2998
HCT-116 = tested on: HCT-116
HCT-15 = tested on: HCT-15
HL-60 = tested on: HL-60
HOP-18 = tested on: HOP-18
HOP-62 = tested on: HOP-62
HOP-92 = tested on: HOP-92
HT-29 = tested on: HT-29
IGROV-1 = tested on: IGROV-1
K562 = tested on: K562
KM-20L2 = tested on: KM-20L2
KM12 = tested on: KM12
LOX IMVI = tested on: LOX IMVI
LXFL 529 = tested on: LXFL 529
M14 = tested on: M14
M19-MEL = tested on: M19-MEL
MOLT-4 = tested on: MOLT-4
Malme-3M = tested on: Malme-3M
NCI-H226 = tested on: NCI-H226
NCI-H23 = tested on: NCI-H23
NCI-H460 = tested on: NCI-H460
NCI-H522 = tested on: NCI-H522
OVCAR-3 = tested on: OVCAR-3
OVCAR-4 = tested on: OVCAR-4
OVCAR-5 = tested on: OVCAR-5
OVCAR-8 = tested on: OVCAR-8
RPMI-8226 = tested on: RPMI-8226
SF-268 = tested on: SF-268
SF-295 = tested on: SF-295
SF-539 = tested on: SF-539
SK-MEL-28 = tested on: SK-MEL-28
SK-MEL-2 = tested on: SK-MEL-2
SK-MEL-5 = tested on: SK-MEL-5
SK-OV-3 = tested on: SK-OV-3
SN12C = tested on: SN12C
SNB-19 = tested on: SNB-19
SNB-75 = tested on: SNB-75
SR = tested on: SR
SW-620 = tested on: SW-620
TK-10 = tested on: TK-10
U-251 = tested on: U-251
UACC-257 = tested on: UACC-257
UACC-62 = tested on: UACC-62
UO-31 = tested on: UO-31
XF498 = tested on: XF498
RXF 393 = tested on: RXF 393
SNB-78 = tested on: SNB-78

Measured: GI50

COc1ccc(N2C(=O)C3c4[nH]c5ccccc5c4C4CCCCCCCCCCC4C3C2=O)cc1 (configuration not stated)
5.52 µM: HCT-15
inactive: 786-0 3.65 µM | A498 9.4 µM | A549 4.84 µM | ACHN 29.4 µM | CAKI-1 35.4 µM | CCRF-CEM 9.27 µM | COLO 205 14.7 µM | DLD-1 8.77 µM | DMS-114 18 µM | DMS-273 6.31 µM | EKVX 23.4 µM | HCC 2998 > 100 µM | HCT-116 5.25 µM | HL-60 18.9 µM | HOP-18 3.03 µM | HOP-62 20.3 µM | HOP-92 19 µM | HT-29 4.42 µM | IGROV-1 > 28.2 µM | K562 19 µM | KM-20L2 3.15 µM | KM12 7.03 µM | LOX IMVI 11.1 µM | LXFL 529 6.93 µM | M14 7.8 µM | M19-MEL 25.1 µM | MOLT-4 15 µM | Malme-3M 17.1 µM | NCI-H226 6.93 µM | NCI-H23 9.38 µM | NCI-H460 4.92 µM | NCI-H522 18 µM | OVCAR-3 9.95 µM | OVCAR-4 26.2 µM | OVCAR-5 > 37.1 µM | OVCAR-8 3.39 µM | RPMI-8226 18.7 µM | SF-268 5.16 µM | SF-295 10.7 µM | SF-539 11 µM | SK-MEL-28 11.9 µM | SK-MEL-2 > 100 µM | SK-MEL-5 21.7 µM | SK-OV-3 28.8 µM | SN12C 4.89 µM | SNB-19 8.81 µM | SNB-75 12.7 µM | SR 10.8 µM | SW-620 4.58 µM | TK-10 > 43.8 µM | U-251 7.62 µM | UACC-257 31.6 µM | UACC-62 18.5 µM | UO-31 > 40.6 µM | XF498 12.9 µM

COc1ccc(N2C(=O)C3c4[nH]c5ccccc5c4C4CCC(C(C)(C)C)CC4C3C2=O)cc1OC (configuration not stated)
35 µM: HCT-15
inactive: 786-0 17.8 µM | A498 19.9 µM | A549 16.1 µM | ACHN 22.1 µM | CCRF-CEM 27.7 µM | COLO 205 31.2 µM | DLD-1 15.1 µM | DMS-273 17.1 µM | EKVX 35.8 µM | HCC 2998 48.8 µM | HCT-116 16.1 µM | HL-60 59.4 µM | HOP-18 20.9 µM | HOP-62 18 µM | HOP-92 20.5 µM | HT-29 33.9 µM | IGROV-1 33 µM | K562 28.2 µM | KM-20L2 36.8 µM | LXFL 529 18.5 µM | M14 45.3 µM | M19-MEL 51.1 µM | MOLT-4 15.6 µM | Malme-3M 38.4 µM | NCI-H226 20 µM | NCI-H23 34.6 µM | NCI-H522 15.4 µM | OVCAR-4 21.9 µM | OVCAR-8 18.2 µM | RPMI-8226 22.2 µM | RXF 393 14.8 µM | SF-268 18.7 µM | SF-295 20.4 µM | SF-539 18.6 µM | SK-MEL-28 71.1 µM | SK-MEL-5 46.3 µM | SK-OV-3 20.4 µM | SN12C 23 µM | SNB-19 26.2 µM | SNB-75 16.3 µM | SNB-78 19.3 µM | SR 18.1 µM | SW-620 26.7 µM | U-251 27.6 µM | UACC-257 67 µM | UACC-62 63.4 µM | UO-31 34.4 µM | XF498 18.2 µM

CCOc1ccc(NC(=O)CC2Sc3ccccc3NC2=O)cc1 (configuration not stated)
inactive: 786-0 19.2 µM | A498 > 100 µM | A549 > 100 µM | ACHN 49.8 µM | CAKI-1 89.9 µM | CCRF-CEM > 100 µM | COLO 205 41.1 µM | DLD-1 88.5 µM | DMS-114 > 100 µM | DMS-273 33.4 µM | EKVX > 100 µM | HCC 2998 38.2 µM | HCT-116 25.2 µM | HL-60 > 100 µM | HOP-18 20.5 µM | HOP-62 44.9 µM | HT-29 85.5 µM | IGROV-1 > 100 µM | K562 65.2 µM | KM-20L2 > 100 µM | KM12 28.3 µM | LXFL 529 > 100 µM | M14 > 100 µM | M19-MEL > 100 µM | MOLT-4 > 100 µM | Malme-3M 97.5 µM | NCI-H226 > 100 µM | NCI-H23 > 100 µM | NCI-H460 90.2 µM | NCI-H522 > 100 µM | OVCAR-3 42.3 µM | OVCAR-4 18.4 µM | OVCAR-5 > 100 µM | OVCAR-8 21.1 µM | RPMI-8226 65.5 µM | SF-268 53 µM | SF-295 > 100 µM | SF-539 45.3 µM | SK-MEL-28 > 100 µM | SK-MEL-5 > 100 µM | SK-OV-3 41.3 µM | SN12C > 100 µM | SNB-19 54.1 µM | SNB-75 31.6 µM | SNB-78 57.1 µM | SW-620 14.5 µM | TK-10 60.5 µM | U-251 45 µM | UACC-257 > 100 µM | UACC-62 > 100 µM | UO-31 47.2 µM
56.8 µM: HCT-15
